This note sets out measurements from patent US11154063B2, “Method for producing a bacteriostatic and fungistatic additive in masterbatch for application in plastics” (SERVICIOS ADMINISTRATIVOS PEÑOLES, S.A. DE C.V., priority 2013, dated 2021).

The test system of this experiment is S. aureus. Description: Inhibition in RP 340 polypropylene copolymer after aging in UV chamber. It counts as cell-based. Conditions: after 120 h of aging in UV chamber.

Structures are written as SMILES.

As for `Oc1cc(Cl)ccc1Oc1ccc(Cl)cc1Cl` [triclosan], the “After 120 h of aging Inhibition %.” value was “starts decreasing its antimicrobial effectiveness”.
